Experimental data as given in patent US8003677B2, “2-heteroaryl-pyrrolo[3,4-c]pyrrole derivatives and their use as SCD inhibitors” (Sanofi-Aventis, priority 2007, dated 2011).

Target: T1, SCD1 (Rattus norvegicus, UniProt P07308)
T1 construct: The resuspended microsome fraction was stored at −80° C; from tissue; host or cells: liver microsomes of male Wistar rats fed a carbohydrate-rich, low-fat diet
T1 sequence (P07308 1-358): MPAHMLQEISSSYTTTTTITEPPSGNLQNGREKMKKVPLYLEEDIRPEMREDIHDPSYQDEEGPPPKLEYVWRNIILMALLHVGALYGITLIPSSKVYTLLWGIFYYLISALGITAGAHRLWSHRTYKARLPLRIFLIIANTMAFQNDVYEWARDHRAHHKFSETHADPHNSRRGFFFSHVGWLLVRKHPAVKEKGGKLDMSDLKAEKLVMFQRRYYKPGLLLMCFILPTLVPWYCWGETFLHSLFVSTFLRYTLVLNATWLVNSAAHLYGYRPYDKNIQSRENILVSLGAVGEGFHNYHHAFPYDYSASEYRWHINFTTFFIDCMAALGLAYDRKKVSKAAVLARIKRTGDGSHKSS
Experiment: stearoyl-CoA desaturase (SCD1) activity in rat liver microsomes, TLC assay with 1-14C-labeled stearic acid
Format: biochemical
Conditions: inhibition of SCD1 activity; compound at 10 μM/l; 15 μg rat liver microsomes (male Wistar rats); 37° C., 1 h
Method: The efficacy of the inventive compounds of the formula I was tested with microsomal enzymes in the following assay system:
The livers of male Wistar rats which (to induce the expression of SCD1) had been fed with a carbohydrate-rich, low-fat diet were homogenized with a Potter tissue homogenizer and differential centrifugation in a buffer which contained 250 mM/l of sucrose and 5 mM/l of HEPES (pH 7.0). The resuspended microsome fraction was stored at −80° C. The stearoyl-CoA desaturase activity was determined in a thin-film chromatography assay with 1-^14C-labeled stearic acid. In short, the particular inventive compounds (in DMSO in a final concentration of 1% [v/v]) were incubated with 15 μg of the rat liver microsomes in 200 μl of assay buffer (6 mM/l of MgCl2, 250 mM/l of sucrose, 150 mM/l of KCl, 40 mM/l of NaF, 100 mM/l of Na2HPO4 (pH7.4), 1.3 mM/l of ATP, 1.5 mM/l of reduced glutathione, 60 uM/l of CoA, 0.33 mM/l of nicotinamide and 0.94 mM/l of NADH) at room temperature for 10 min. 0.5 μCi [1-^14C]-stearic acid (55 mCi/mmol) was added, and the mixture was incubated at 37° C. for 1 h. The radioactively labeled fatty acids were subsequently hydrolyzed at 65° C. with 2.5 M KOH/MeOH:H2O (4:1) for 4 h, protonated with 280 μl of formic acid and extracted with 500 μl of hexane. The TLC plates were immersed into 10% AgNO3 and heat-activated before use. 150 μl of the hexane phase were applied to the plates, and the TLC plates were developed in buffer (chloroform:methanol:acetic acid:water [90:8:1:0.8]) and dried. The plates were read off in a phosphoimager to quantify the SCD1 activity.
The person skilled in the art can modify this assay in various aspects to determine the inhibition of the stearoyl-CoA desaturase activity.

Compound | inhibition at 10 µM [%]
CCC(O)CCNC(=O)c1ccc(N2CC3=C(CN(C(=O)c4cc(OC)ccc4Br)C3)C2)nn1 (centres unmarked) [Example 18, N-(3-Hydroxypentyl)-6-[5-(2-bromo-5-methoxybenzoyl)-3,4,5,6-tetrahydro-1H-pyrrolo-[3,4-c]pyrrol-2-yl]pyridazine-3-carboxamide] | 38
O=C(NCc1nccs1)c1ccc(N2CC3=C(CN(C(=O)c4ccccc4C(F)(F)F)C3)C2)nc1 [Example 15, N-Thiazol-2-ylmethyl-6-[5-(2-trifluoromethylbenzoyl)-3,4,5,6-tetrahydro-1H-pyrrolo-[3,4-c]pyrrol-2-yl]nicotinamide] | 100
CN(Cc1nccs1)C(=O)c1ccc(N2CC3=C(CN(C(=O)c4ccccc4C(F)(F)F)C3)C2)nc1 [Example 16, N-Methyl-N-thiazol-2-ylmethyl-6-[5-(2-trifluoromethylbenzoyl)-3,4,5,6-tetrahydro-1H-pyrrolo[3,4-c]pyrrol-2-yl]nicotinamide] | 100
O=C(NCCCc1ccccc1)c1cnc(N2CC3=C(CN(C(=O)c4ccccc4C(F)(F)F)C3)C2)s1 [Example 9, N-(3-Phenylpropyl)-2-[5-(2-trifluoromethylbenzoyl)-3,4,5,6-tetrahydro-1H-pyrrolo[3,4-c]-pyrrol-2-yl]thiazole-5-carboxamide] | 26
O=C(NCc1cncs1)c1ccc(N2CC3=C(CN(C(=O)c4ccccc4C(F)(F)F)C3)C2)nc1 [Example 20, N-Thiazol-5-ylmethyl-6-[5-(2-trifluoromethylbenzoyl)-3,4,5,6-tetrahydro-1H-pyrrolo-[3,4-c]pyrrol-2-yl]nicotinamide] | 100
O=C(NCCc1ccccc1)c1ccc(N2CC3=C(CN(C(=O)c4ccccc4C(F)(F)F)C3)C2)nc1 [Example 13, N-Phenethyl-6-[5-(2-trifluoromethylbenzoyl)-3,4,5,6-tetrahydro-1H-pyrrolo[3,4-c]pyrrole-2-yl]nicotinamide] | 100
CCOC(=O)c1cnc(N2CC3=C(CN(C(=O)c4ccccc4C(F)(F)F)C3)C2)s1 [Example 1, Ethyl 2-[5-(2-trifluoromethylbenzoyl)-3,4,5,6-tetrahydro-1H-pyrrolo[3,4-c]pyrrol-2-yl]thiazole-5-carboxylate] | 65

The remaining lines, values ahead:

inhibition at 10 µM [%] | Compound
97 | O=C(NCC1CC1)c1ccc(N2CC3=C(CN(C(=O)c4ccccc4C(F)(F)F)C3)C2)nc1 [Example 17, N-Cyclopropylmethyl-6-[5-(2-trifluoromethylbenzoyl)-3,4,5,6-tetrahydro-1H-pyrrolo-[3,4-c]pyrrol-2-yl]nicotinamide]
100 | O=C(NCCC1CCCC1)c1ccc(N2CC3=C(CN(C(=O)c4ccccc4C(F)(F)F)C3)C2)nc1 [Example 22, N-(2-Cyclopentylethyl)-6-[5-(2-trifluoromethylbenzoyl)-3,4,5,6-tetrahydro-1H-pyrrolo-[3,4-c]pyrrol-2-yl]nicotinamide]
100 | CC(C)CCNC(=O)c1ccc(N2CC3=C(CN(C(=O)c4ccccc4C(F)(F)F)C3)C2)nc1 [Example 10, N-(3-Methylbutyl)-6-[5-(2-trifluoromethylbenzoyl)-3,4,5,6-tetrahydro-1H-pyrrolo[3,4-c]-pyrrol-2-yl]nicotinamide]
100 | O=C(NCCC1CC1)c1ccc(N2CC3=C(CN(C(=O)c4ccccc4C(F)(F)F)C3)C2)nc1 [Example 14, N-(2-Cyclopropylethyl)-6-[5-(2-trifluoromethylbenzoyl)-3,4,5,6-tetrahydro-1H-pyrrolo-[3,4-c]pyrrol-2-yl]nicotinamide]
31 | O=C(NCCC1CC1)c1cnc(N2CC3=C(CN(C(=O)c4ccccc4C(F)(F)F)C3)C2)s1 [Example 2, N-(2-Cyclopropylethyl)-2-[5-(2-trifluoromethylbenzoyl)-3,4,5,6-tetrahydro-1H-pyrrolo-[3,4-c]pyrrol-2-yl]thiazole-5-carboxamide]
100 | O=C(NCCC1CC1)c1ccc(N2CC3=C(CN(C(=O)c4ccccc4C(F)(F)F)C3)C2)nn1 [Example 19, N-(2-Cyclopropylethyl)-6-[5-(2-trifluoromethylbenzoyl)-3,4,5,6-tetrahydro-1H-pyrrolo-[3,4-c]pyrrol-2-yl]pyridazine-3-carboxamide]
100 | O=C(NCC1CCCC1)c1ccc(N2CC3=C(CN(C(=O)c4ccccc4C(F)(F)F)C3)C2)nc1 [Example 21, N-Cyclopentylmethyl-6-[5-(2-trifluoromethylbenzoyl)-3,4,5,6-tetrahydro-1H-pyrrolo-[3,4-c]pyrrol-2-yl]nicotinamide]
